Results taken from patent publication US11091510B2, “Crystal characteristics, preparation processes and anticancer applications of 17beta-neriifolin crystal forms” (EnKang Pharmaceuticals (Guangzhou), Ltd., priority 2017, dated 2021).

System: Human gastric cancer cells MGC-803
Assay: In vivo efficacy test of 17bNF Crystal Form 0 and Form II, MGC-803 xenograft in nude mice
Conditions: oral, once a day, six times every week until the 15th day; start at average tumor volume 1450 mm^3; FIG. 42A-C
Method: Human gastric cancer cells MGC-803 were subcutaneously planted into the armpit of nude mice. The test drugs 17bNF-0 and 17bNF-II were separately administrated orally when the average tumor volume reached 1450 mm^3. Drugs were given once a day, six times every week until the 15th day. CMC (drug-carrier; 0.5%) was used as the blank control. Tumor volumes were measured once about every three days (FIG. 42A), and the nude mice were photographed on the 22th day (FIG. 42B), and the nude mice were sacrificed on the 22th day. The tumors were dissected out from the nude mice and photographed (FIG. 42C).

In the case of COC1C(O)[C@H](O[C@H]2CC[C@@]3(C)[C@H](CC[C@@H]4[C@@H]3CC[C@]3(C)[C@@H](C5=CC(=O)OC5)CC[C@]43O)C2)OC(C)[C@@H]1O (stereo partly drawn) [17bNF-0, (3β, 5β)-3-[(6-deoxy-3-O-methyl-α-L-glucopyranosyl)oxy]-14-hydroxycard-20(22)-enolide], the “anticancer activities in nude mice (tumor volume)” value was “very high anticancer activities”.
